Data reported in patent publication US9168259B2 (GRÜNENTHAL GMBH, priority 2010, dated 2015).

Target: T1, KCNQ2/3 channels (Homo sapiens, UniProt O43525+O43526)
T1 construct: expressed in transfected cells
Assay: Fluorescence assay using a voltage sensitive dye (fluorimetry)
Type: cell-based
Details: CHO-K1 cells expressing KCNQ2/3; for Emax: CHO-K1, plateau effect relative to saturated retigabine (50 μM) = 100%, negative values = antagonistic, read-out: Fluorimetry % efficacy (retigabine = 100%); for EC50: IC50 where % efficacy is negative, read-out: Fluorimetry EC50/IC50

T1 sequence (O43526 whole entry): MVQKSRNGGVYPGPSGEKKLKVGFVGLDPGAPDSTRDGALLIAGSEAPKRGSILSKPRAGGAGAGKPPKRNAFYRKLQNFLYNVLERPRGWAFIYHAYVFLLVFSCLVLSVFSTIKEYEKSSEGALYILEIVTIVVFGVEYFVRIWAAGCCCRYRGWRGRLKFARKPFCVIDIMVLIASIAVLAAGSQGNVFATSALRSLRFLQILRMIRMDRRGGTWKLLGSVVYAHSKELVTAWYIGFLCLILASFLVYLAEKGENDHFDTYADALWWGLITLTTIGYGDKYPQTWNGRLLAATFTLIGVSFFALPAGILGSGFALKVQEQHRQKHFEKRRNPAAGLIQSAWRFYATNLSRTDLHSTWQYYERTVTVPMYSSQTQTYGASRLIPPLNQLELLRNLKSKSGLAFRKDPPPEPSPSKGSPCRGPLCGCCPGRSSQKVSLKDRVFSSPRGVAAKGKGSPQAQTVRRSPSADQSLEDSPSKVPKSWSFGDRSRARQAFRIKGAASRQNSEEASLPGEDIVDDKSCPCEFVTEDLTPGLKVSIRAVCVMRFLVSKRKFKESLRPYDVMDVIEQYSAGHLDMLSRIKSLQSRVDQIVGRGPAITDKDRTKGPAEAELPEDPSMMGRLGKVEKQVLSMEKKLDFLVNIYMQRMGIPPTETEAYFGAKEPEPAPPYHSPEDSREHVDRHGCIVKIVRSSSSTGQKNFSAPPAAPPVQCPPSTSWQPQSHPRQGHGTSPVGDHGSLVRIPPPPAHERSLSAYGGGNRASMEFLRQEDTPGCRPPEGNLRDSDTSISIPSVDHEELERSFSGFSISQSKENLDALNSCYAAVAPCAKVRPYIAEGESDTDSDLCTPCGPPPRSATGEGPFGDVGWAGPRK
T1 sequence (O43525 whole entry): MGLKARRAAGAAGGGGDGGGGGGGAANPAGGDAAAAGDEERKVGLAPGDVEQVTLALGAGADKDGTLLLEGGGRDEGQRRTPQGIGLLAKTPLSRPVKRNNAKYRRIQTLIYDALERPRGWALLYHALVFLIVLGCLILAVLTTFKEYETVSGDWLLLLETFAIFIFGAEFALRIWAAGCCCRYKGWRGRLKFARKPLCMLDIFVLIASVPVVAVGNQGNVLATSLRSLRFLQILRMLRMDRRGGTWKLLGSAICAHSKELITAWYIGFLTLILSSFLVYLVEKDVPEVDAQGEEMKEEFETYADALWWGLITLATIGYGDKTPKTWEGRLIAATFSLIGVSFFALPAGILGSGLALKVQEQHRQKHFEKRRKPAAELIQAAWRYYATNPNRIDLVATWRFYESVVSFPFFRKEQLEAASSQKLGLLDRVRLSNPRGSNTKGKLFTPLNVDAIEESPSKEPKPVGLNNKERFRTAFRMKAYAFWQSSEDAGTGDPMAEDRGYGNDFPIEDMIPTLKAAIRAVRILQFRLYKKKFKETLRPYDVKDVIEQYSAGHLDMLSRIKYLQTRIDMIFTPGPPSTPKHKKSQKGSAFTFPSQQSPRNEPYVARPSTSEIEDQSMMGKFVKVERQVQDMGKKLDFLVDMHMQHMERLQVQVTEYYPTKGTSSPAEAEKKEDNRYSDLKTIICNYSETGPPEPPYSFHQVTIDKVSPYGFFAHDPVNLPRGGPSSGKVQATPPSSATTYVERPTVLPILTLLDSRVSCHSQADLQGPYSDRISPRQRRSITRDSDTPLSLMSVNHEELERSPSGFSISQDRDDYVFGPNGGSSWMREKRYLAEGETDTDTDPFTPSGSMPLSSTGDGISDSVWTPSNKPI

Compound | Emax [%] | EC50 [nM]
CCSc1nc(N(C)C2CCCC(OC)C2)cc(C)c1C(=O)NCc1cccc(F)c1 (stereo not drawn) [Example 307, 2-Ethylsulfanyl-N-[(3-fluorophenyl)-methyl]-6-[(3-methoxy-cyclohexyl)-methyl-amino]-4-methyl-pyridine-3-carboxylic acid amide] | 104 | 178
CCSc1nc(N2CCOCC2)cc(C)c1C(=O)NCCCC(C)(F)F [Example 308, N-(4,4-Difluoro-pentyl)-2-ethylsulfanyl-4-methyl-6-morpholin-4-yl-pyridine-3-carboxylic acid amide] | 249 | 397
CCSc1nc(N2CCOCC2=O)cc(C)c1C(=O)NCc1cccc(F)c1 [Example 312, 2-Ethylsulfanyl-N-[(3-fluorophenyl)-methyl]-4-methyl-6-(3-oxo-morpholin-4-yl)-pyridine-3-carboxylic acid amide] | 135 | 6700
Cc1cc(N2CCOCC2)nc(C(C)C)c1C(=O)NCCCC(F)(F)F [Example 315, 2-Isopropyl-4-methyl-6-morpholin-4-yl-N-(4,4,4-trifluoro-butyl)-pyridine-3-carboxylic acid amide] | 187 | 314
Cc1cc(N2CCOCC2)nc(OC2COC2)c1C(=O)NCc1cccc(F)c1 [Example 317, N-[(3-Fluorophenyl)-methyl]-4-methyl-6-morpholin-4-yl-2-(oxetan-3-yloxy)-pyridine-3-carboxylic acid amide] | 116 | 1120
CCSc1nc(N2CCOCC2)cc(C)c1C(=O)NCCCC(C)(C)OC [Example 318, 2-Ethylsulfanyl-N-(4-methoxy-4-methyl-pentyl)-4-methyl-6-morpholin-4-yl-pyridine-3-carboxylic acid amide] | 193 | 2880
CCSc1nc(N2CCOCC2)cc(C)c1C(=O)NCCCC(C)(C)F [Example 319, 2-Ethylsulfanyl-N-(4-fluoro-4-methyl-pentyl)-4-methyl-6-morpholin-4-yl-pyridine-3-carboxylic acid amide] | 233 | 348
CCCc1nc(N2CCOCC2)cc(C)c1C(=O)NCCCC(F)(F)F [Example 320, 4-Methyl-6-morpholin-4-yl-2-propyl-N-(4,4,4-trifluoro-butyl)-pyridine-3-carboxylic acid amide] | 192 | 826
CCSc1nc(N2CCOCC2)cc(C)c1C(=O)NCC(=O)CC(C)(C)C [Example 324, N-(4,4-Dimethyl-2-oxo-pentyl)-2-ethylsulfanyl-4-methyl-6-morpholin-4-yl-pyridine-3-carboxylic acid amide] | 166 | 834
CCSc1nc(N2CC3CCC(C2)O3)cc(C)c1C(=O)NCc1cccc(F)c1 [Example 325, 2-Ethylsulfanyl-N-[(3-fluorophenyl)-methyl]-4-methyl-6-(8-oxa-3-azabicyclo[3.2.1]octan-3-yl)-pyridine-3-carboxylic acid amide] | 153 | 282
Cc1cc(N2CCOCC2)nc(C2CC2)c1C(=O)NCCCC(F)(F)F [Example 329, 2-Cyclopropyl-4-methyl-6-morpholin-4-yl-N-(4,4,4-trifluoro-butyl)-pyridine-3-carboxylic acid amide] | 170 | 763
CCSc1nc(N2CCOCC2)cc(OC)c1C(=O)NCc1cccc(F)c1 [Example 336, 2-Ethylsulfanyl-N-[(3-fluorophenyl)-methyl]-4-methoxy-6-morpholin-4-yl-pyridine-3-carboxylic acid amide] | 183 | 430
CCSc1nc(N(CCCOC)Cc2ccc(F)cc2)cc(C)c1C(=O)NCc1cccc(F)c1 [Example 338, 2-Ethylsulfanyl-N-[(3-fluorophenyl)-methyl]-6-[(4-fluorophenyl)-methyl-(3-methoxy-propyl)-amino]-4-methyl-pyridine-3-carboxylic acid amide] | 73 | 320

Compounds with a lower EC50, results first:

Emax [%] | EC50 [nM] | Compound
168 | 71 | Cc1cc(N2CCOCC2)nc(C(C)C)c1C(=O)NCc1ccc(F)cc1 [Example 309, N-[(4-Fluorophenyl)-methyl]-2-isopropyl-4-methyl-6-morpholin-4-yl-pyridine-3-carboxylic acid amide]
174 | 43 | Cc1cc(N2CCOCC2)nc(C(C)C)c1C(=O)NCc1ccc(F)c(F)c1 [Example 310, N-[(3,4-Difluoro-phenyl)-methyl]-2-isopropyl-4-methyl-6-morpholin-4-yl-pyridine-3-carboxylic acid amide]
146 | 45 | Cc1cc(N2CCOCC2)nc(C(C)C)c1C(=O)NCc1ccc(C(F)(F)F)cc1 [Example 311, 2-Isopropyl-4-methyl-6-morpholin-4-yl-N-[[4-(trifluoromethyl)-phenyl]-methyl]pyridine-3-carboxylic acid amide]
229 | 62 | CCCc1nc(N2CCOCC2)cc(C)c1C(=O)NCCCC(C)(C)C [Example 313, N-(4,4-Dimethyl-pentyl)-4-methyl-6-morpholin-4-yl-2-propyl-pyridine-3-carboxylic acid amide]
242 | 18 | Cc1cc(N2CCOCC2)nc(C(C)C)c1C(=O)NCCCC(C)(C)C [Example 314, N-(4,4-Dimethyl-pentyl)-2-isopropyl-4-methyl-6-morpholin-4-yl-pyridine-3-carboxylic acid amide]
160 | 29 | Cc1cc(N2CCOCC2)nc(C(C)C)c1C(=O)NCc1cc(F)cc(F)c1 [Example 316, N-[(3,5-Difluoro-phenyl)-methyl]-2-isopropyl-4-methyl-6-morpholin-4-yl-pyridine-3-carboxylic acid amide]
162 | 83 | CCCc1nc(N2CCOCC2)cc(C)c1C(=O)NCc1ccc(F)c(F)c1 [Example 321, N-[(3,4-Difluoro-phenyl)-methyl]-4-methyl-6-morpholin-4-yl-2-propyl-pyridine-3-carboxylic acid amide]
193 | 80 | CCCc1nc(N2CCOCC2)cc(C)c1C(=O)NCc1cc(F)cc(F)c1 [Example 322, N-[(3,5-Difluoro-phenyl)-methyl]-4-methyl-6-morpholin-4-yl-2-propyl-pyridine-3-carboxylic acid amide]
130 | 102 | CCCc1nc(N2CCOCC2)cc(C)c1C(=O)NCc1ccc(C(F)(F)F)cc1 [Example 323, 4-Methyl-6-morpholin-4-yl-2-propyl-N-[[4-(trifluoromethyl)-phenyl]-methyl]pyridine-3-carboxylic acid amide]
163 | 59 | CCCc1nc(N2CCOCC2)cc(C)c1C(=O)NCc1ccc(Cl)cc1 [Example 326, N-[(4-Chlorophenyl)-methyl]-4-methyl-6-morpholin-4-yl-2-propyl-pyridine-3-carboxylic acid amide]
173 | 50 | Cc1cc(N2CCOCC2)nc(C(C)C)c1C(=O)NCc1ccc(Cl)cc1 [Example 327, N-[(4-Chlorophenyl)-methyl]-2-isopropyl-4-methyl-6-morpholin-4-yl-pyridine-3-carboxylic acid amide]
230 | 44 | Cc1cc(N2CCOCC2)nc(C2CC2)c1C(=O)NCCCC(C)(C)C [Example 328, 2-Cyclopropyl-N-(4,4-dimethyl-pentyl)-4-methyl-6-morpholin-4-yl-pyridine-3-carboxylic acid amide]
156 | 168 | Cc1cc(N2CCOCC2)nc(C2CC2)c1C(=O)NCc1cccc(F)c1 [Example 330, 2-Cyclopropyl-N-[(3-fluorophenyl)-methyl]-4-methyl-6-morpholin-4-yl-pyridine-3-carboxylic acid amide]
144 | 148 | Cc1cc(N2CCOCC2)nc(C2CC2)c1C(=O)NCc1ccc(F)cc1 [Example 331, 2-Cyclopropyl-N-[(4-fluorophenyl)-methyl]-4-methyl-6-morpholin-4-yl-pyridine-3-carboxylic acid amide]
166 | 109 | Cc1cc(N2CCOCC2)nc(C2CC2)c1C(=O)NCc1ccc(F)c(F)c1 [Example 332, 2-Cyclopropyl-N-[(3,4-difluoro-phenyl)-methyl]-4-methyl-6-morpholin-4-yl-pyridine-3-carboxylic acid amide]
169 | 98 | Cc1cc(N2CCOCC2)nc(C2CC2)c1C(=O)NCc1cc(F)cc(F)c1 [Example 333, 2-Cyclopropyl-N-[(3,5-difluoro-phenyl)-methyl]-4-methyl-6-morpholin-4-yl-pyridine-3-carboxylic acid amide]
124 | 96 | Cc1cc(N2CCOCC2)nc(C2CC2)c1C(=O)NCc1ccc(C(F)(F)F)cc1 [Example 334, 2-Cyclopropyl-4-methyl-6-morpholin-4-yl-N-[[4-(trifluoromethyl)-phenyl]-methyl]-pyridine-3-carboxylic acid amide]
162 | 85 | Cc1cc(N2CCOCC2)nc(C2CC2)c1C(=O)NCc1ccc(Cl)cc1 [Example 335, N-[(4-Chlorophenyl)-methyl]-2-cyclopropyl-4-methyl-6-morpholin-4-yl-pyridine-3-carboxylic acid amide]
237 | 117 | COCCSc1nc(N2CCOCC2)cc(C)c1C(=O)NCCCC(C)(C)C [Example 337, N-(4,4-Dimethyl-pentyl)-2-(2-methoxy-ethylsulfanyl)-4-methyl-6-morpholin-4-yl-pyridine-3-carboxylic acid amide]
202 | 37 | CCSc1nc(N2CCOCC2)cc(C)c1C(=O)NCCC(C)C(C)(C)C (stereo not drawn) [Example 339, 2-Ethylsulfanyl-4-methyl-6-morpholin-4-yl-N-(3,4,4-trimethyl-pentyl)-pyridine-3-carboxylic acid amide]
